B1: asparaginase of E.coli, soluble form (Escherichia coli K-12) (protein)
chain: LPNITILATGGTIAGGGDSATKSNYTVGKVGVENLVNAVPQLKDIANVKGEQVVNIGSQDMNDNVWLTLAKKINTDCDKTDGFVITHGTDTMEETAYFLDLTVKCDKPVVMVGAMRPSTSMSADGPFNLYNAVVTAADKASANRGVLVVMNDTVLDGRDVTKTNTTDVATFKSVNYGPLGYIHNGKIDYQRTPARKHTSDTPFDVSKLNELPKVGIVYNYANASDLPAKALVDAGYDGIVSAGVGNGNLYKSVFDTLATAAKTGTAVVRSSRVPTGATTQDAEVDDAKYGFVASGTLNPQKARVLLQLALTQTKDPQQIQQIFNQY

Assays:
[1] = target: asparaginase of E.coli immobilized in hydrogel prepared with albumin and PEG 10,000 (Escherichia coli, UniProt P00805); assay: Apparent Km of asparaginase immobilized in albumin-PEG 10,000 hydrogel; assay type: biochemical; conditions: slab thickness of 3 mm
Method: (§1) As another example of enzyme immobilization in hydrogels prepared with albumin and PEG 10,000 of Mr, the enzyme asparaginase of E.coli was used. […] The operational stability of the immobilized enzyme in presence of a continuous feeding in substrate extend at 37° C. over a 20 days period without significant loss of activity.

[2] = substrate: NC(=O)C[C@H](N)C(=O)O; assay: Km of soluble asparaginase for asparagine; assay type: biochemical, E.coli; conditions: other: soluble form of the enzyme; pH 8.0; 37.0 °C
Method: as §1

Molecule	apparent Km for the substrate asparagine [1] [µM]	Km [2] [µM]
NC(=O)C[C@H](N)C(=O)O [asparagine]	2.4	–
B1	–	2.2

Reference: patent US5733563A, “Albumin based hydrogel” (Universite du Quebec a Montreal, priority 1996, dated 1998)
